# Measurements from patent US6706663B2, “Herbicidal 3-heterocyclic substituted benzisothiazole and benzisoxazole compounds” (Wyeth, priority 2000, dated 2004).
# Tests used:
# [1] = test system: ECHORC (Echinochloa oryzoides); experiment: Flooded paddy, preemergence weed control; type: in vivo, Echinochloa oryzoides (Ard.) Fritsch.; settings: rated 3-4 weeks after treatment, 0-9 rating scale
# In short: (§1)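 Visual 0–9 ratings versus controls scored stand, vigor, malformation, size, chlorosis and overall appearance. Plants grew from seeds or propagating organs sown 0.5 cm deep in silt loam, with water held 1.5–3 cm above the soil for the whole test under greenhouse care.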
# ORYSAT (Rice, Tebonnet) [2] = experiment: Flooded paddy, post-transplant rice tolerance; type: in vivo, Oryza sativa, (L.) Tebonnet; settings: flooded paddy, post-transplant rice, rated 3-4 weeks after treatment, 0-9 rating scale
# In short: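 Two ten-day-old seedlings were transplanted into silt loam, flooded and held at 1.5 to 3 cm water above the soil before herbicide treatment. Pots stayed in the greenhouse at that water level. Injury was scored visually on a 0-9 scale versus untreated control.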
# [3] = test system: TRZAWR (Wheat, Winter, cv Riband); experiment: Postemergence herbicidal evaluation; type: in vivo, Triticum aestivum
# In short: (§2)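 Seedlings grown about two weeks in flats, sprayed, then kept under standard greenhouse care. Rated visually 4–5 weeks after treatment on a 0–9 scale (stand, vigour, malformation, size, chlorosis, overall appearance) relative to untreated control; repeat tests averaged.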
# [4] = test system: IPOHE (Ipomoea hederacea); experiment: Postemergence herbicidal evaluation; type: in vivo, (L.) Jacq.
# In short: as §2
# [5] = test system: ECHCG (Echinochloa crus-galli); experiment: Postemergence herbicidal evaluation; type: in vivo, (L.) Beau
# In short: as §2
# [6] = test system: ABUTH (Abutilon theophrasti); experiment: Postemergence herbicidal evaluation; type: in vivo, Medic.
# In short: as §2
# [7] = test system: AMBEL (Ambrosia artemisifolia); experiment: Postemergence herbicidal evaluation; type: in vivo, L.
# In short: as §2
# [8] = test system: CHEAL (Chenopodium album); experiment: Postemergence herbicidal evaluation; type: in vivo, L.
# In short: as §2
# [9] = test system: CASOB (Cassia obtusifolia); experiment: Postemergence herbicidal evaluation; type: in vivo, L.
# In short: as §2
# [10] = test system: SAGPY (Sagittaria pygmaea); experiment: Flooded paddy, preemergence weed control; type: in vivo, L.; settings: rated 3-4 weeks after treatment, 0-9 rating scale
# In short: as §1
# ORYSAT (Rice, Tebonnet) [11] = experiment: Postemergence herbicidal evaluation; type: in vivo, Oryza sativa, (L.) Tebonnet
# In short: as §2
# [12] = test system: AMBEL (Ambrosia artemisifolia); experiment: Preemergence herbicidal evaluation; type: in vivo, L.; settings: preemergence, rated 4-5 weeks after treatment
# In short: (§3)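 Scores (0–9) reflect visual comparison with control plants for stand, vigor, malformation, size and chlorosis. Seeds in potting soil received a post-planting spray of compound in aqueous acetone and grew in a greenhouse until assessment 4–5 weeks later.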
# [13] = test system: CHEAL (Chenopodium album); experiment: Preemergence herbicidal evaluation; type: in vivo, L.; settings: preemergence, rated 4-5 weeks after treatment
# In short: as §3
# [14] = test system: CASOB (Cassia obtusifolia); experiment: Preemergence herbicidal evaluation; type: in vivo, L.; settings: preemergence, rated 4-5 weeks after treatment
# In short: as §3
# [15] = test system: ABUTH (Abutilon theophrasti); experiment: Preemergence herbicidal evaluation; type: in vivo, Medic.; settings: preemergence, rated 4-5 weeks after treatment
# [16] = test system: CYPSE (Cyperus serotinus); experiment: Flooded paddy, preemergence weed control; type: in vivo, Rottb.; settings: rated 3-4 weeks after treatment, 0-9 rating scale
# In short: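 Seeds or propagules were planted 0.5 cm deep in silt loam and flooded to 1.5–3 cm. Compounds in 50/50 v/v aqueous/acetone were pipetted into the flood water at about 0.0080 to 0.1250 kg/ha. After 3–4 weeks in the greenhouse, effect was rated visually on a 0–9 scale versus untreated control.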
# ZEAMX (Corn, Field) = experiment: Postemergence herbicidal evaluation; type: in vivo, Zea mays, L.
# In short: as §2
# [17] = test system: TRZAWR (Wheat, Winter, cv Riband); experiment: Preemergence herbicidal evaluation; type: in vivo, Triticum aestivum; settings: preemergence, rated 4-5 weeks after treatment
# In short: as §3
# ORYSAT (Rice, Tebonnet) [18] = experiment: Preemergence herbicidal evaluation; type: in vivo, Oryza sativa, (L.) Tebonnet; settings: preemergence, rated 4-5 weeks after treatment
structure (smiles),measurement,setting,value
"Cn1c(C(F)(F)F)cc(=O)n(-c2ccc3snc(C4OCC(C)(C)CO4)c3c2)c1=O [Compound 36, 3-[3(5,5-dimethyl-m-dioxan-2-yl)-1,2-benzisothiazol-5-yl]-1-methyl-6-(trifluoromethyl)uracil]","herbicidal rating, ECHORC",[1]; rate 0.0080 kg/ha,5.0
same,"herbicidal rating, ECHORC",[1]; rate 0.0320 kg/ha,8.5
same,"herbicidal rating, ECHORC",[1]; rate 0.1250 kg/ha,9.0
same,"herbicidal rating, ORYSAT (rice tolerance)","ORYSAT (Rice, Tebonnet) [2]; rate 0.0080 kg/ha",5.0
same,"herbicidal rating, ORYSAT (rice tolerance)","ORYSAT (Rice, Tebonnet) [2]; rate 0.0320 kg/ha",7.5
same,"herbicidal rating, ORYSAT (rice tolerance)","ORYSAT (Rice, Tebonnet) [2]; rate 0.1250 kg/ha",9.0
same,"Postemergence herbicidal rating, TRZAWR",[3]; rate 0.0320 kg/ha,4.0
same,"Postemergence herbicidal rating, TRZAWR",[3]; rate 0.0620 kg/ha,4.5
same,"Postemergence herbicidal rating, IPOHE",[4]; rate 0.0320 kg/ha,9.0
same,"Postemergence herbicidal rating, IPOHE",[4]; rate 0.0620 kg/ha,9.0
same,"Postemergence herbicidal rating, ECHCG",[5]; rate 0.0320 kg/ha,1.0
same,"Postemergence herbicidal rating, ECHCG",[5]; rate 0.0620 kg/ha,3.0
same,"Postemergence herbicidal rating, ABUTH",[6]; rate 0.0320 kg/ha,9.0
same,"Postemergence herbicidal rating, ABUTH",[6]; rate 0.0620 kg/ha,9.0
same,"Postemergence herbicidal rating, AMBEL",[7]; rate 0.0320 kg/ha,9.0
same,"Postemergence herbicidal rating, AMBEL",[7]; rate 0.0620 kg/ha,9.0
same,"Postemergence herbicidal rating, CHEAL",[8]; rate 0.0320 kg/ha,7.0
same,"Postemergence herbicidal rating, CHEAL",[8]; rate 0.0620 kg/ha,9.0
same,"Postemergence herbicidal rating, CASOB",[9]; rate 0.0320 kg/ha,9.0
same,"Postemergence herbicidal rating, CASOB",[9]; rate 0.0620 kg/ha,9.0
same,"herbicidal rating, SAGPY",[10]; rate 0.0080 kg/ha,0.0
same,"herbicidal rating, SAGPY",[10]; rate 0.0320 kg/ha,3.5
same,"herbicidal rating, SAGPY",[10]; rate 0.1250 kg/ha,9.0
same,"Postemergence herbicidal rating, ORYSAT","ORYSAT (Rice, Tebonnet) [11]; rate 0.0320 kg/ha",4.5
same,"Postemergence herbicidal rating, ORYSAT","ORYSAT (Rice, Tebonnet) [11]; rate 0.0620 kg/ha",7.0
same,AMBEL preemergence herbicidal rating,[12]; Rate 0.0620 kg/ha,9.0
same,AMBEL preemergence herbicidal rating,[12]; Rate 0.1250 kg/ha,9.0
same,AMBEL preemergence herbicidal rating,[12]; Rate 0.2500 kg/ha,9.0
same,CHEAL preemergence herbicidal rating,[13]; Rate 0.0620 kg/ha,9.0
same,CHEAL preemergence herbicidal rating,[13]; Rate 0.1250 kg/ha,9.0
same,CHEAL preemergence herbicidal rating,[13]; Rate 0.2500 kg/ha,9.0
same,CASOB preemergence herbicidal rating,[14]; Rate 0.0620 kg/ha,5.0
same,CASOB preemergence herbicidal rating,[14]; Rate 0.1250 kg/ha,9.0
same,CASOB preemergence herbicidal rating,[14]; Rate 0.2500 kg/ha,9.0
same,ABUTH preemergence herbicidal rating,[15]; Rate 0.0620 kg/ha,9.0
same,ABUTH preemergence herbicidal rating,[15]; Rate 0.1250 kg/ha,9.0
same,ABUTH preemergence herbicidal rating,[15]; Rate 0.2500 kg/ha,9.0
same,"herbicidal rating, CYPSE",[16]; rate 0.0320 kg/ha,9.0
same,"herbicidal rating, CYPSE",[16]; rate 0.1250 kg/ha,9.0
same,"Postemergence herbicidal rating, ZEAMX","ZEAMX (Corn, Field); rate 0.0320 kg/ha",5.0
same,"Postemergence herbicidal rating, ZEAMX","ZEAMX (Corn, Field); rate 0.0620 kg/ha",6.0
same,TRZAWR preemergence herbicidal rating,[17]; Rate 0.0620 kg/ha,9.0
same,TRZAWR preemergence herbicidal rating,[17]; Rate 0.1250 kg/ha,9.0
same,TRZAWR preemergence herbicidal rating,[17]; Rate 0.2500 kg/ha,9.0
same,ORYSAT preemergence herbicidal rating,"ORYSAT (Rice, Tebonnet) [18]; Rate 0.0620 kg/ha",7.5
same,ORYSAT preemergence herbicidal rating,"ORYSAT (Rice, Tebonnet) [18]; Rate 0.1250 kg/ha",9.0
same,ORYSAT preemergence herbicidal rating,"ORYSAT (Rice, Tebonnet) [18]; Rate 0.2500 kg/ha",9.0
